Data set [1] concerns Ser-3-n-octanoyl ghrelin. The experiment in a line: Competition ELISA of plasma of immunized mice (Kd-app for ghrelin). Type of data set: binding. As to conditions: Tables 4A and 4B. Here is the method: Immunization involved five (5) immunizations over ten (10) weeks. Age and weight-matched mice received immunizations (i.p. 0.2 mL) 90 min before the dark cycle on experimental days 0, 14 (2 weeks), 28 (4 weeks), 49 (7 weeks) and 70 (10 weeks). All immunizations used ALUM (Pierce) as the adjuvant, and contained 50 μg of protein (i.e. immunoconjugates of Ghr1, Ghr2, PEG-Ghr4 and PEG-Ghr5 peptides with carrier proteins KLH, TT or CRM197). Tail blood was collected one week post-immunization, centrifuged and plasma analyzed for antibody titers and ghrelin binding affinity.
For competitive ELISA, plates (96-well) were coated overnight at 4° C. with freshly prepared ghrelin-BSA conjugate. The plates were blocked with 4% skim milk, washed and plasma samples were added at appropriate dilutions. The plates were washed and Ser-3-n-octanoyl ghrelin was added to the wells in a concentration series starting at 100 μM. Plates were incubated for 1 h at 37° C., thoroughly washed, and goat anti-mouse-horseradish peroxidase (HRP) conjugate (Pierce) was added. After an incubation period of 1 h at RT, plates were thoroughly washed again and the HRP substrate (TMB substrate kit; Pierce) was added, the reaction was allowed to develop for 15 min and stopped by the addition of 2M H2SO4. The absorbance (450 nm) was read and the values plotted using GraFit (Erithacus Software Ltd). The free antigen concentration at which the absorbance value is 50% of the maximum absorbance was considered the average Kd-app of the plasma for ghrelin.
On the technique in general: In an ELISA, binding on a coated surface is turned into a signal by an enzyme label.

Data set [2] in a line: physchem. The following applies: water.
Assay in data set [3]: not given
The source holds these as a separate data set.

The nature of data set [4]: Hydrolytic stability of ghrelin haptens in buffered solutions for 7 days. Type of data set: physicochemical. Here is the method:
To test the hydrolytic stability of the Ghrelin haptens, 1 mg/mL solutions of Ghr1, Ghr4, Ghr5 and the corresponding Ghr4 and Ghr5 haptens comprising the spacer moiety (PEG-Ghr4 and PEG-Ghr5 respectively) were maintained in buffered solutions for 7 days at either 4° C. or 37° C. at pH values of pH5 (in 10 mM citrate buffer), pH6 (in 10 mM maleate buffer) or pH7 (in 10 mM phosphate buffer). FIG. 2 is a graphical representation comparing the percentage of the active acyl form of each Ghrelin hapten present after seven days with the percentage of total hydrolysis and the percentage of total oxidative degradation for each hapten.

Structures are written as SMILES. Values after ≈ are worked out from the molar mass of the structure shown. Read-outs that look alike come from different tables or passages of the source. Non-standard residues stand in square brackets, D forms with d. Residues, ends and D or L forms follow the SMILES beside them. *: point of attachment. PEG4 = NCCOCCOCCOCCOCCC(=O)O; Octanoyl = CCCCCCCC(=O)*; Butyryl = CCCC(=O)* Bounds are passed on as bounds.

The solubility is how much of the substance goes into solution per volume. A high value points to much dissolved substance.

In the case of `CCCC(=O)OC[C@H](NC(=O)[C@H](CO)NC(=O)CN)C(=O)N[C@@H](Cc1ccccc1)C(=O)N[C@@H](CC(C)C)C(=O)N[C@@H](CO)C(=O)N1CCC[C@H]1C(=O)N[C@@H](CCC(=O)O)C(=O)N[C@@H](Cc1c[nH]cn1)C(=O)N[C@@H](CCC(N)=O)C(=O)N[C@@H](CS)C(N)=O` [Ghr1], the “Affinity of induced anti-ghrelin antibodies” value in data set [1] was “high affinity anti-ghrelin antibodies in some instances”. Besides, the “Selectivity of induced antibodies for acylated ghrelin over the des-acyl form” value in data set [1] is on record as “no particular selectivity”. The solubility in data set [2] (pH 5), in data set [2] (pH 6) and in data set [2] (pH 7) was more than 1000 µg/mL throughout.
In the case of `CC(C)C[C@H](NC(=O)[C@H](CCCCN)NC(=O)[C@H](C)NC(=O)[C@@H]1CCCN1C(=O)[C@@H]1CCCN1C(=O)[C@H](CCCCN)NC(=O)[C@H](CCCCN)NC(=O)[C@H](CO)NC(=O)[C@H](CCC(=O)O)NC(=O)[C@H](CCCCN)NC(=O)[C@H](CCCNC(=N)N)NC(=O)[C@H](CCC(N)=O)NC(=O)[C@H](CCC(N)=O)NC(=O)[C@@H](N)CS)C(=O)N[C@@H](CCC(N)=O)C(=O)N1CCC[C@H]1C(=O)N[C@@H](CCCNC(=N)N)C(N)=O` [Ghr2], the “Affinity of induced anti-ghrelin antibodies” value in data set [1] is listed as “high affinity anti-ghrelin antibodies in some instances”. The “Selectivity of induced antibodies for acylated ghrelin over the des-acyl form” value in data set [1] was “no particular selectivity”. In addition, the solubility in data set [2] (pH 5), in data set [2] (pH 6) and in data set [2] (pH 7) was more than 1000 µg/mL throughout.
For the compound `CCCC(=O)OC[C@H](NC(=O)[C@H](CO)NC(=O)CN)C(=O)N[C@@H](Cc1ccccc1)C(=O)N[C@@H](CC(C)C)C(=O)N[C@@H](CS)C(N)=O` [Ghr4, GSS(butyryl)FLC-NH2] (H-GSS(Butyryl)FLC-NH2), the “Solubility of hapten at pH5” value was “insoluble”. Moreover, the solubility in data set [2] (pH 6) is more than 1000 µg/mL. Moreover, the solubility in data set [2] (pH 7) was less than 100 µg/mL.
In the case of `CCCCCCCC(=O)OC[C@H](NC(=O)[C@H](CO)NC(=O)CN)C(=O)N[C@@H](Cc1ccccc1)C(=O)N[C@@H](CC(C)C)C(=O)N[C@@H](CS)C(N)=O` [Ghr5, GSS(octanoyl)FLC-NH2] (H-GSS(Octanoyl)FLC-NH2), the “Solubility of hapten at pH5” value is “insoluble”. The “Solubility of hapten at pH6” value (pH6) is reported as “insoluble”. Besides, the “Solubility of hapten at pH7” value (pH7) was “insoluble”.
As to `CCCC(=O)OC[C@H](NC(=O)[C@H](CO)NC(=O)CN)C(=O)N[C@@H](Cc1ccccc1)C(=O)N[C@@H](CC(C)C)C(=O)NCCOCCOCCOCCOCCC(=O)N[C@@H](CS)C(N)=O` [PEG-Ghr4, GSS(butyryl)FL-PEG4-C-NH2] (H-GSS(Butyryl)FL[PEG4]C-NH2), the solubility in data set [3] (pH5), in data set [3] (pH6) and in data set [3] (pH7) was more than 1000 µg/mL each time.
Regarding `CCCCCCCC(=O)OC[C@H](NC(=O)[C@H](CO)NC(=O)CN)C(=O)N[C@@H](Cc1ccccc1)C(=O)N[C@@H](CC(C)C)C(=O)NCCOCCOCCOCCOCCC(=O)N[C@@H](CS)C(N)=O` [PEG-Ghr5, GSS(octanoyl)FL-PEG4-C-NH2] (H-GSS(Octanoyl)FL[PEG4]C-NH2), in data set [4] (7 days, FIG. 2), the “Hydrolysis relative to Ghr5 without the spacer moiety” value is “less hydrolysis” and the “Oxidative degradation relative to Ghr5 without the spacer moiety” value is “significantly reduced oxidative degradation”. Moreover, in data set [4] (pH 5, 7 days, 4° C.), the “Hydrolysis compared with native protein (rGhrelin)” value is “approximately the same amount of hydrolysis as the native protein” and the “Oxidative degradation compared with Ghr5 hapten” value was “significantly less oxidative degradation”. Besides, in data set [2] (pH 5), the solubility was more than 1000 µg/mL. This compound returned a solubility in data set [2] (pH 6) of more than 1000 µg/mL. In data set [2] (pH 7), this compound showed a solubility of approximately 400 µg/mL (≈ 406 µM).

The record behind these values is patent US9695222B2, “Ghrelin mimetic polypeptide hapten immunoconjugates having improved solubility and immunogenicity and methods of use thereof” (The Scripps Research Institute, priority 2011, dated 2017).
